IC50 data for 20 compounds are collected here from patent US11420970B1 (NOVARTIS AG, priority 2019, dated 2022).

Test [1] relates to cellular H3K36me2 level in multiple myeloma cell line KMS11 (t(4;14)+). Description: H3K36me2 cellular FRET assay in KMS11-Par line. The note with it: Homo sapiens. Format: cell-based. Here is the method:
H3K36Me2 Cellular FRET Assay in KMS11-Par Line
Fluorescence Resonance Energy Transfer (FRET) assay was used to test the ability of candidate compound to reduce cellular H3K36me2 level in multiple myeloma cell line KMS11 (t(4;14)+) (Horizon Discovery Ltd.).
Cells were treated with tested compounds at the desired concentration for 48 hours. […] Histone extract was incubated with Eu labeled anti-H3K36me2 antibody (abcam #ab ab9049) and d2 labeled anti-H3 antibody (abcam #ab1791) for 1 hour at room temperature. A Eu labeled anti-H3 antibody (CISBIO #64CUS000) was used for loading control. The abundancy of H3K36me2 or total H3 was measured by fluorescence signal on Perkin Elmer Envison machine.

Test [2] deals with cellular H3K36me2 level in thyroid carcinoma cell line CGTH-W-1 (NSD2 E1099K). Put plainly: H3K36me2 cellular ELISA assay in CGTH-W-1 line. Format: cell-based. The note with it: Homo sapiens, CGTH-W-1, 72 h, read-out: H3K36me2 ELISA in CGTH-W-1. The procedure, abridged:
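After 72 h compound treatment of NSD2 E1099K-mutant CGTH-W-1 cells, H3K36me2 and total H3 were quantified by ELISA with chemiluminescent read-out. A parallel-seeded plate gave cell viability by CellTiter-Glo.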
On the technique in general: ELISA stands for enzyme-linked immunosorbent assay.

A further test deals with NSD2 [1-1365] (Homo sapiens (Human), UniProt O96028). Put plainly: LC-MS/MS-based NSD2 enzymatic assay (SAH production). Particulars: read-out: NSD2 IC50. Format: biochemical. The procedure, abridged:
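SAH formed was measured by LC-MS/MS using d4-SAH as internal standard and an SAH calibration curve. Compounds were preincubated 20 min with NSD2 [1-1365] and SAM; mouse-liver nucleosome then started a 90 min room-temperature reaction (8 nM enzyme, 1 μM SAM, 400 nM nucleosome final, pH 8.0), stopped with TFA.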

For test [3], the system named is cellular H3K36me2 level in multiple myeloma cell line KMS11 (t(4;14)+). Put plainly: H3K36me2 cellular ELISA assay in KMS11-Par line. Format: cell-based. Particulars: Homo sapiens, read-out: H3K36me2 ELISA in KMS11-Par. The procedure, abridged: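 After 72 h compound exposure, HCl-extracted histones from KMS11 (t(4;14)+) cells were probed by ELISA for H3K36me2 against total H3 with a chemiluminescence read-out. Cells were plated at 1,250/well in Opti-MEM plus B-27 and N2 the day before. A parallel CellTiter-Glo plate tracked viability.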

Where [4] appears, read: NSD2 biochemical activity, class symbols.
Where [5] appears, read: KMS-11, KMS11-Par line, cellular H3K36me2 level, FRET, read-out: H3K36me2 FRET in KMS11-Par.
Where [6] appears, read: KMS-11, KMS11-Par line (t(4;14)+), 72 hours treatment, ELISA.
The mark [7] stands for this setting: KMS-11, KMS11-Par line, FRET, read-out: H3K36me2 FRET in KMS11-Par.

Read-outs that look alike come from different tables or passages of the source.

NSD2 [1-1365], sequence (O96028 whole entry): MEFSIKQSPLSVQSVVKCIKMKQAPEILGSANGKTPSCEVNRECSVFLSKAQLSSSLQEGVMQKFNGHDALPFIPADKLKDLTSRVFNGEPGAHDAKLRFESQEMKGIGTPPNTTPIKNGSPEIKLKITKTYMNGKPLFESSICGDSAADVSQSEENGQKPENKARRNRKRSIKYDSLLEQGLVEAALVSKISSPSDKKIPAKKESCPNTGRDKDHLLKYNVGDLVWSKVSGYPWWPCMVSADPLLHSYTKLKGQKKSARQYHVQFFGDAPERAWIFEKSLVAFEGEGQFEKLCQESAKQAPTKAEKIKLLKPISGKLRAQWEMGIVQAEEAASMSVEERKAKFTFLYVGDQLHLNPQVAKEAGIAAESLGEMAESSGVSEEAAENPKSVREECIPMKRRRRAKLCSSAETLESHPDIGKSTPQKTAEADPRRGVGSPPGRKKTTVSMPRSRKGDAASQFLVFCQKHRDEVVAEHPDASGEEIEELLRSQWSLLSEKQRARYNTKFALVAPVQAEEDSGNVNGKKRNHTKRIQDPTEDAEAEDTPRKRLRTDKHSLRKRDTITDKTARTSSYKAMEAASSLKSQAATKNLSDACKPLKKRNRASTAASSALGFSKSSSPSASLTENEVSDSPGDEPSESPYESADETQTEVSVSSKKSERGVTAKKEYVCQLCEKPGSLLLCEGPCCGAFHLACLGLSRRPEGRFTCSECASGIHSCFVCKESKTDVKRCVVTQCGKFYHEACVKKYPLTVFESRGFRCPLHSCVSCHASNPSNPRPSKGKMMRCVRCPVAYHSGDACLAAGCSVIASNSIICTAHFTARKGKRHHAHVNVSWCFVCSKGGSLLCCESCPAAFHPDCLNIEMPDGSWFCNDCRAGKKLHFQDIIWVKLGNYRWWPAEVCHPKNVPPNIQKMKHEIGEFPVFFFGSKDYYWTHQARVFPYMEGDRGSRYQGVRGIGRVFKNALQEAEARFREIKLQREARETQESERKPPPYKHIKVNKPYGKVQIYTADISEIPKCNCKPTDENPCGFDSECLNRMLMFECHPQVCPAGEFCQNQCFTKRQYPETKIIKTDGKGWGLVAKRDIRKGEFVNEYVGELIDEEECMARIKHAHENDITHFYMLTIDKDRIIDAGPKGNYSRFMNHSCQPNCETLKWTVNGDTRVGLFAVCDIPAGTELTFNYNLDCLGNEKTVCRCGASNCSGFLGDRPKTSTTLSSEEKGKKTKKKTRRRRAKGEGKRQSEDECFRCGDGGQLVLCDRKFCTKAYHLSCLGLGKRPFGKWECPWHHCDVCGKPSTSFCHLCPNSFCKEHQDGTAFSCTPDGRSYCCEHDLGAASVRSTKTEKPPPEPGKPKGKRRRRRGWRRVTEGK

Consider `COc1ccc(-c2cc(Cn3cnc4c(N)ncnc43)c(N3CCC[C@@H](N)C3)cn2)cc1F` [Example 1, (R)-9-((5-(3-aminopiperidin-1-yl)-2-(3-fluoro-4-methoxyphenyl)pyridin-4-yl)methyl)-9H-purin-6-amine], for which the IC50 in test [1] (KMS-11, read-out: H3K36me2 FRET in KMS11-Par) was 3030 nM; in test [2] it was 750 nM; at NSD2 [1-1365] (setting [4]), 10 to 1000 nM; in test [3] (KMS-11, 72 h) it was 4090 nM.

On to `COc1ccc(-c2cc(Cn3cnc4c(N)ncnc43)c(N3CC[C@@H](F)[C@@H](N)C3)cn2)cc1F` [Example 5, 9-((5-((3S,4R)-3-amino-4-fluoropiperidin-1-yl)-2-(3-fluoro-4-methoxyphenyl)pyridin-4-yl)methyl)-9H-purin-6-amine], for which the IC50 in test [1] (setting [5]) is 6460 nM; in test [2], 1770 nM; at NSD2 [1-1365] (setting [4]), 10 to 1000 nM.

In the case of `COC[C@@]1(N)CCCN(c2cnc(-c3cc(Cl)ccc3F)cc2Cn2cnc3c(N)ncnc32)C1` [Example 26, (R)-9-((5-(3-amino-3-(methoxymethyl)piperidin-1-yl)-2-(5-chloro-2-fluorophenyl)pyridin-4-yl)methyl)-9H-purin-6-amine], the figures for the IC50 (in test [1] (setting [5]); on NSD2 [1-1365] (setting [4]); in test [3] (setting [6])) were 248 nM, 1 to 10 nM and 375 nM, respectively.

On to `CC(C)OC[C@@]1(N)CCCN(c2cnc(-c3ccc(F)cc3)cc2Cn2cnc3c(N)ncnc32)C1` [Example 37, (R)-9-((5-(3-amino-3-(isopropoxymethyl)piperidin-1-yl)-2-(4-fluorophenyl)pyridin-4-yl)methyl)-9H-purin-6-amine], for which the IC50 is 614 nM in test [1] (setting [5]), 10 to 1000 nM on NSD2 [1-1365] (setting [4]) and 1400 nM in test [3] (setting [6]).

For the compound `Nc1ncnc2c1ncn2Cc1cc(-c2ccc(F)c(F)c2)ncc1N1CCC[C@](N)(COC(F)F)C1` [Example 41, (R)-9-((5-(3-amino-3-((difluoromethoxy)methyl)piperidin-1-yl)-2-(3,4-difluorophenyl)pyridin-4-yl)methyl)-9H-purin-6-amine], the IC50 in test [1] (setting [5]) is 1090 nM; at NSD2 [1-1365] (setting [4]), 10 to 1000 nM; in test [3] (setting [6]) it was 2310 nM.

For `Nc1ncnc2c1ncn2Cc1cc(-c2ccc(F)c(F)c2)ncc1N1CCC[C@](N)(Cc2ccccn2)C1` [Example 54, (S)-9-((5-(3-amino-3-(pyridin-2-ylmethyl)piperidin-1-yl)-2-(3,4-difluorophenyl)pyridin-4-yl)methyl)-9H-purin-6-amine], the IC50 in test [1] (setting [5]) was 450 nM; at NSD2 [1-1365] (setting [4]) it was 1 to 10 nM; in test [3] (setting [6]), 780 nM.

With `COc1ccc(-c2cc(Cn3cnc4c(N)ncnc43)c(N3CCC[C@](N)(CC(F)F)C3)cn2)cc1F` [Example 61, (S)-9-((5-(3-amino-3-(2,2-difluoroethyl)piperidin-1-yl)-2-(3-fluoro-4-methoxyphenyl)pyridin-4-yl)methyl)-9H-purin-6-amine], the IC50 is 1420 nM in test [1] (setting [5]), 643 nM in test [2] and 10 to 1000 nM on NSD2 [1-1365] (setting [4]).

Regarding `CNC(=O)CC1(N)CCCN(c2cnc(-c3cccc(F)c3)cc2Cn2cnc3c(N)ncnc32)C1` (stereo not shown) [Example 66, 2-(3-amino-1-(4-((6-amino-9H-purin-9-yl)methyl)-6-(3-fluorophenyl)pyridin-3-yl)piperidin-3-yl)-N-methylacetamide], the IC50 in test [1] (setting [5]) is 118000 nM; at NSD2 [1-1365] (setting [4]) it was 10 to 1000 nM.

Take `CNC(=O)CC1(N)CCCN(c2cnc(-c3ccc(F)c(F)c3)cc2Cn2cnc3c(N)ncc(Cl)c32)C1` (stereo not shown) [Example 67, 2-(3-amino-1-(4-((4-amino-7-chloro-1H-imidazo[4,5-c]pyridin-1-yl)methyl)-6-(3,4-difluorophenyl)pyridin-3-yl)piperidin-3-yl)-N-methylacetamide]: the values for the IC50 (in test [1] (setting [5]); on NSD2 [1-1365] (setting [4])) were 4250 nM and 10 to 1000 nM, respectively.

Turning to `CN(C)C(=O)C[C@@]1(N)CCCN(c2cnc(-c3cccc(F)c3)cc2Cn2cnc3c(N)ncnc32)C1` [Example 70, (S)-2-(3-amino-1-(4-((6-amino-9H-purin-9-yl)methyl)-6-(3-fluorophenyl)pyridin-3-yl)piperidin-3-yl)-N,N-dimethylacetamide], the IC50 is 9440 nM in test [1] (setting [5]) and 10 to 1000 nM on NSD2 [1-1365] (setting [4]).

As to `Nc1ncnc2c1ncn2Cc1cc(-c2ccc(F)cc2)ncc1N1CCC[C@](N)(CC(F)F)C1` [Example 71, (S)-9-((5-(3-amino-3-(2,2-difluoroethyl)piperidin-1-yl)-2-(4-fluorophenyl)pyridin-4-yl)methyl)-9H-purin-6-amine], the IC50 in test [1] (setting [5]) is 849 nM; on NSD2 [1-1365] (setting [4]), 10 to 1000 nM.

In the case of `CNC(=O)CC1(N)CCCN(c2cnc(-c3ccc(F)c(F)c3)cc2Cn2cnc3c(N)nccc32)C1` (stereo not shown) [Example 72, 2-(3-amino-1-(4-((4-amino-1H-imidazo[4,5-c]pyridin-1-yl)methyl)-6-(3,4-difluorophenyl)pyridin-3-yl)piperidin-3-yl)-N-methylacetamide], the IC50 was 250000 nM in test [1] (setting [5]) and 10 to 1000 nM on NSD2 [1-1365] (setting [4]).

Consider `COC(=O)[C@@]1(N)CCCN(c2cnc(-c3cccc(F)c3)cc2Cn2cnc3c(N)ncnc32)C1` [Example 79, methyl (R)-3-amino-1-(4-((6-amino-9H-purin-9-yl)methyl)-6-(3-fluorophenyl)pyridin-3-yl)piperidine-3-carboxylate], for which the IC50 in test [1] (setting [5]) is 473 nM; on NSD2 [1-1365] (setting [4]) it was 1 to 10 nM.

Regarding `COc1ccc(-c2cc(Cn3cnc4c(N)ncnc43)c(N3CCC[C@](N)(C(=O)N(C)C)C3)cn2)cc1F` [Example 80, (R)-3-amino-1-(4-((6-amino-9H-purin-9-yl)methyl)-6-(3-fluoro-4-methoxyphenyl)pyridin-3-yl)-N,N-dimethylpiperidine-3-carboxamide], the values for the IC50 (in test [1] (setting [5]); on NSD2 [1-1365] (setting [4])) were 4950 nM and 1 to 10 nM, respectively.

On to `COc1ccc(-c2cc(Cn3cnc4c(N)ncnc43)c(N3CCC[C@](N)(C(=O)OC(C)C)C3)cn2)cc1F` [Example 81, isopropyl (R)-3-amino-1-(4-((6-amino-9H-purin-9-yl)methyl)-6-(3-fluoro-4-methoxyphenyl)pyridin-3-yl)piperidine-3-carboxylate], for which the IC50 is 115 nM in test [1] (setting [5]) and 1 to 10 nM on NSD2 [1-1365] (setting [4]).

For `COc1ccc(-c2cc(Cn3cnc4c(N)ncnc43)c(N3CCC[C@](N)(C(=O)OC(C)(C)C)C3)cn2)cc1F` [Example 83, tert-butyl (R)-3-amino-1-(4-((6-amino-9H-purin-9-yl)methyl)-6-(3-fluoro-4-methoxyphenyl)pyridin-3-yl)piperidine-3-carboxylate], the IC50 in test [1] (setting [5]) was 956 nM; at NSD2 [1-1365] (setting [4]) it was 10 to 1000 nM.

In the case of `CO/N=C(\C)C1(N)CCCN(c2cnc(-c3ccc(OC)c(F)c3)cc2Cn2cnc3c(N)ncnc32)C1` (stereo not shown) [Example 96, (E)-1-(3-amino-1-(4-((6-amino-9H-purin-9-yl)methyl)-6-(3-fluoro-4-methoxyphenyl)pyridin-3-yl)piperidin-3-yl)ethan-1-one O-methyl oxime], the IC50 is 2400 nM in test [1] (setting [5]) and 10 to 1000 nM on NSD2 [1-1365] (setting [4]).

Turning to `COc1ccc(-c2cc(Cn3cnc4c(N)ncnc43)c(N3CCCC(N)(C(C)F)C3)cn2)cc1F` (stereo not shown) [Example 295, 9-((5-(3-amino-3-(1-fluoroethyl)piperidin-1-yl)-2-(3-fluoro-4-methoxyphenyl)pyridin-4-yl)methyl)-9H-purin-6-amine], the IC50 was 2330 nM in test [1] (setting [7]); 10 to 1000 nM at NSD2 [1-1365]; 1860 nM in test [3] (KMS-11, KMS11-Par line, ELISA, 72 hours).

As for `CSCC1(N)CCCN(c2cnc(-c3ccc(F)c(F)c3)cc2Cn2cnc3c(N)ncnc32)C1` (stereo not shown) [Example 297, 9-((5-(3-amino-3-((methylthio)methyl)piperidin-1-yl)-2-(3,4-difluorophenyl)pyridin-4-yl)methyl)-9H-purin-6-amine], the IC50 in test [1] (setting [7]) is 2350 nM; on NSD2 [1-1365] it was 10 to 1000 nM.

On to `COc1ccc(-c2cc(Cn3cnc4c(N)ncnc43)c(N3CCC[C@](N)(CC(F)(F)F)C3)cn2)cc1F` [Example 303, (S)-9-((5-(3-amino-3-(2,2,2-trifluoroethyl)piperidin-1-yl)-2-(3-fluoro-4-methoxyphenyl)pyridin-4-yl)methyl)-9H-purin-6-amine], for which the IC50 in test [1] (setting [7]) is 5370 nM; on NSD2 [1-1365], 10 to 1000 nM.
